Laboratory results: ChEMBL document CHEMBL3112450, “Synthesis and in vitro antitumor evaluation of primary amine substituted quinazoline linked benzimidazole” (Bioorg Med Chem Lett, 2014)

System: HOP-92
Assay: Cytotoxicity against human HOP92 cells assessed as cell growth at 10^-5 M after 48 hrs by SRB assay
Assay type: functional
Settings: HOP-92, 48 h, read-out: Activity
With C=CCn1c(C)nc2ccc(Nc3nc(Nc4ccc5nc(C)n(CC=C)c5c4)c4ccccc4n3)cc21 the growth at 10 µM was -80%.

System: 786-0
Assay: Cytotoxicity against human 786-0 cells assessed as cell growth at 10^-5 M after 48 hrs by SRB assay
Assay type: functional
Settings: 786-0, 48 h, read-out: Activity
Compound C=CCn1c(C)nc2ccc(Nc3nc(Nc4ccc5nc(C)n(CC=C)c5c4)c4ccccc4n3)cc21 has a growth at 10 µM of -93.8%.

System: NCI-H23
Assay: Cytotoxicity against human NCI-H23 cells assessed as cell growth at 10^-5 M after 48 hrs by SRB assay
Assay type: functional
Settings: NCI-H23, 48 h, read-out: Activity
With C=CCn1c(C)nc2ccc(Nc3nc(Nc4ccc5nc(C)n(CC=C)c5c4)c4ccccc4n3)cc21 the growth at 10 µM was -89%.

System: K562
Assay: Cytotoxicity against human K562 cells assessed as cell growth at 10^-5 M after 48 hrs by SRB assay
Assay type: functional
Settings: K562, 48 h, read-out: Activity
C=CCn1c(C)nc2ccc(Nc3nc(Nc4ccc5nc(C)n(CC=C)c5c4)c4ccccc4n3)cc21 gave a growth at 10 µM of -49%.

System: OVCAR-8
Assay: Cytotoxicity against human OVCAR8 cells assessed as cell growth at 10^-5 M after 48 hrs by SRB assay
Assay type: functional
Settings: OVCAR-8, 48 h, read-out: Activity
Work on C=CCn1c(C)nc2ccc(Nc3nc(Nc4ccc5nc(C)n(CC=C)c5c4)c4ccccc4n3)cc21 yielded a growth at 10 µM of -76%.

System: not listed separately
Assay: Cytotoxicity against human OVCAR4 cells assessed as cell growth at 10^-5 M after 48 hrs by SRB assay
Assay type: functional
Settings: OVCAR-4, 48 h, read-out: Activity
In the case of C=CCn1c(C)nc2ccc(Nc3nc(Nc4ccc5nc(C)n(CC=C)c5c4)c4ccccc4n3)cc21, the growth at 10 µM is reported as -100%.

System: CCRF-CEM
Assay: Cytotoxicity against human CCRF-CEM cells assessed as cell growth at 10^-5 M after 48 hrs by SRB assay
Assay type: functional
Settings: read-out: Activity
Compound C=CCn1c(C)nc2ccc(Nc3nc(Nc4ccc5nc(C)n(CC=C)c5c4)c4ccccc4n3)cc21 has a growth at 10 µM of -20.8%.

System: T47D
Assay: Cytotoxicity against human T47D cells assessed as cell growth at 10^-5 M after 48 hrs by SRB assay
Assay type: functional
Settings: read-out: Activity
Work on C=CCn1c(C)nc2ccc(Nc3nc(Nc4ccc5nc(C)n(CC=C)c5c4)c4ccccc4n3)cc21 yielded a growth at 10 µM of -91%.

System: SK-MEL-28
Assay: Cytotoxicity against human SK-MEL-28 cells assessed as cell growth at 10^-5 M after 48 hrs by SRB assay
Assay type: functional
Settings: SK-MEL-28, 48 h, read-out: Activity
Work on C=CCn1c(C)nc2ccc(Nc3nc(Nc4ccc5nc(C)n(CC=C)c5c4)c4ccccc4n3)cc21 yielded a growth at 10 µM of -96%.

System: COLO 205
Assay: Cytotoxicity against human COLO205 cells assessed as cell growth at 10^-5 M after 48 hrs by SRB assay
Assay type: functional
Settings: COLO 205, 48 h, read-out: Activity
C=CCn1c(C)nc2ccc(Nc3nc(Nc4ccc5nc(C)n(CC=C)c5c4)c4ccccc4n3)cc21 showed a growth at 10 µM of -100%.

System: PC-3
Assay: Cytotoxicity against human PC3 cells assessed as cell growth at 10^-5 M after 48 hrs by SRB assay
Assay type: functional
Settings: PC-3, 48 h, read-out: Activity
C=CCn1c(C)nc2ccc(Nc3nc(Nc4ccc5nc(C)n(CC=C)c5c4)c4ccccc4n3)cc21 gave a growth at 10 µM of -82%.

System: SF-268
Assay: Cytotoxicity against human SF268 cells assessed as cell growth at 10^-5 M after 48 hrs by SRB assay
Assay type: functional
Settings: SF-268, 48 h, read-out: Activity
C=CCn1c(C)nc2ccc(Nc3nc(Nc4ccc5nc(C)n(CC=C)c5c4)c4ccccc4n3)cc21 showed a growth at 10 µM of -77%.

System: Malme-3M
Assay: Cytotoxicity against human MALME-3M cells assessed as cell growth at 10^-5 M after 48 hrs by SRB assay
Assay type: functional
Settings: read-out: Activity
For C=CCn1c(C)nc2ccc(Nc3nc(Nc4ccc5nc(C)n(CC=C)c5c4)c4ccccc4n3)cc21, the growth at 10 µM was -78.9%.

System: HCT-15
Assay: Cytotoxicity against human HCT15 cells assessed as cell growth at 10^-5 M after 48 hrs by SRB assay
Assay type: functional
Settings: HCT-15, 48 h, read-out: Activity
For C=CCn1c(C)nc2ccc(Nc3nc(Nc4ccc5nc(C)n(CC=C)c5c4)c4ccccc4n3)cc21, the growth at 10 µM was -74%.

System: CAKI-1
Assay: Cytotoxicity against human Caki1 cells assessed as cell growth at 10^-5 M after 48 hrs by SRB assay
Assay type: functional
Settings: CAKI-1, 48 h, read-out: Activity
Work on C=CCn1c(C)nc2ccc(Nc3nc(Nc4ccc5nc(C)n(CC=C)c5c4)c4ccccc4n3)cc21 yielded a growth at 10 µM of -81%.

System: HL-60(TB)
Assay: Cytotoxicity against human HL-60(TB) cells assessed as cell growth at 10^-5 M after 48 hrs by SRB assay
Assay type: functional
Settings: HL-60, 48 h, read-out: Activity
For C=CCn1c(C)nc2ccc(Nc3nc(Nc4ccc5nc(C)n(CC=C)c5c4)c4ccccc4n3)cc21, the growth at 10 µM was -71%.

System: SF-539
Assay: Cytotoxicity against human SF539 cells assessed as cell growth at 10^-5 M after 48 hrs by SRB assay
Assay type: functional
Settings: SF-539, 48 h, read-out: Activity
In the case of C=CCn1c(C)nc2ccc(Nc3nc(Nc4ccc5nc(C)n(CC=C)c5c4)c4ccccc4n3)cc21, the growth at 10 µM is reported as -96%.

System: A549
Assay: Cytotoxicity against human A549 cells assessed as cell growth at 10^-5 M after 48 hrs by SRB assay
Assay type: functional
Settings: A549, 48 h, read-out: Activity
Compound C=CCn1c(C)nc2ccc(Nc3nc(Nc4ccc5nc(C)n(CC=C)c5c4)c4ccccc4n3)cc21 has a growth at 10 µM of -90%.

System: HOP-62
Assay: Cytotoxicity against human HOP62 cells assessed as cell growth at 10^-5 M after 48 hrs by SRB assay
Assay type: functional
Settings: HOP-62, 48 h, read-out: Activity
Work on C=CCn1c(C)nc2ccc(Nc3nc(Nc4ccc5nc(C)n(CC=C)c5c4)c4ccccc4n3)cc21 yielded a growth at 10 µM of -100%.
